Assays:
[1] = tested on: diverse panel of E. coli strains; assay: Cumulative MICs (MIC50, MIC90) for levofloxacin and piperacillin ± 25 μM MBX2319; type: cell-based, Escherichia coli; conditions: E. coli strain panel
Source text: • Strains and Reagents. The following strains were obtained from the Keio collection (Baba, et al.: Construction of Escherichia coli K-12 in-frame, single-gene knockout mutants: the Keio collection. In Mol Syst Biol, vol. 2, pp. 2006 0008, (2006)): JW0451 (ΔacrB::kan), JW5503 (ΔtolC::kan), JW3234 (ΔacrF::kan), JW2661 (ΔemrB::kan), JW0863 (ΔmacB::kan). The deletion mutations in each of these strains were transferred to AB1157 using P1 phage transduction (see Table 1). The construction of the E. coli cell-based reporter strain (SOS-XXX) that was used for high throughput screening is described in detail in the supplementary information. […] Irgasan was a generous gift from Ciba Speciality Chemicals, Inc. (High Point, N.C.). Hoechst 33342 (H33342) was purchased from Molecular Probes (Eugene, Oreg.). […] Luria Broth (Miller) and agar were purchased as prepared dehydrated media from Becton Dickenson (Franklin Lakes, N.J.). The compound libraries used in high-throughput screens were purchased from Chembridge (San Diego, Calif.), ChemDiv (San Diego, Calif.), and TimTec (Newark, Del.). MBX2319 was synthesized by Microbiotix, Inc. • Antibacterial Activity Assays. The minimal inhibitory concentration (MIC) of antibacterial agents and biocides were determined using the microbroth dilution method essentially as described in the CLSI protocol M7-A7 (CLSI: Method for dilution antimicrobial susceptibility testing for bacteria that grow aerobically; Approved standard-document M7-A7. In Clinical and Laboratory Standards Institute document M7-A7, Clinical and Laboratory Standards Institute, Wayne, Pa., (2006)), with the following exceptions. LB media was used instead of MHB. […] The final concentration of DMSO in each assay was 2%. […] MIC assays were performed in triplicate and the geometric mean was calculated. Checkerboard MIC assays using an EPI and an antibacterial agent were performed essentially as described (Pillai, et al.: Antimicrobial Combinations. In Antibiotics in Laboratory Medicine, ed. by V. Lorian, pp. 365-440, Lippincott Williams & Wilkins, Philadelphia, Pa., (2005)), with the same modifications used for the MIC assays described above. • Time-Kill Assays. Killing curve assays were performed essentially as described (Pillai, et al.: Antimicrobial Combinations. In Antibiotics in Laboratory Medicine, ed. by V. Lorian, pp. 365-440, Lippincott Williams & Wilkins, Philadelphia, Pa., (2005)). […] Viability was monitored over 2-4 hours by making serial dilutions in saline and spotting 5 μl of each dilution onto the surface of an LB agar plate in triplicate. Colonies were counted after the plates were incubated at 37° C. for 16-18 hr, colony forming units (CFU) per ml were calculated, and the average and standard deviation for the three replicates was determined. […]

AcrAB-TolC efflux pump [2] = biological target: T1, AcrAB-TolC efflux pump (Escherichia coli, UniProt P31224); assay: H33342 accumulation assay; type: cell-based, Escherichia coli 285; parameters: endogenous in cells; host or cells: E. coli strains 285 and 287 (ciprofloxacin-resistant mutants of AB1157); conditions: hyper-efflux strain 285
Target sequence in this assay (P31224 whole entry): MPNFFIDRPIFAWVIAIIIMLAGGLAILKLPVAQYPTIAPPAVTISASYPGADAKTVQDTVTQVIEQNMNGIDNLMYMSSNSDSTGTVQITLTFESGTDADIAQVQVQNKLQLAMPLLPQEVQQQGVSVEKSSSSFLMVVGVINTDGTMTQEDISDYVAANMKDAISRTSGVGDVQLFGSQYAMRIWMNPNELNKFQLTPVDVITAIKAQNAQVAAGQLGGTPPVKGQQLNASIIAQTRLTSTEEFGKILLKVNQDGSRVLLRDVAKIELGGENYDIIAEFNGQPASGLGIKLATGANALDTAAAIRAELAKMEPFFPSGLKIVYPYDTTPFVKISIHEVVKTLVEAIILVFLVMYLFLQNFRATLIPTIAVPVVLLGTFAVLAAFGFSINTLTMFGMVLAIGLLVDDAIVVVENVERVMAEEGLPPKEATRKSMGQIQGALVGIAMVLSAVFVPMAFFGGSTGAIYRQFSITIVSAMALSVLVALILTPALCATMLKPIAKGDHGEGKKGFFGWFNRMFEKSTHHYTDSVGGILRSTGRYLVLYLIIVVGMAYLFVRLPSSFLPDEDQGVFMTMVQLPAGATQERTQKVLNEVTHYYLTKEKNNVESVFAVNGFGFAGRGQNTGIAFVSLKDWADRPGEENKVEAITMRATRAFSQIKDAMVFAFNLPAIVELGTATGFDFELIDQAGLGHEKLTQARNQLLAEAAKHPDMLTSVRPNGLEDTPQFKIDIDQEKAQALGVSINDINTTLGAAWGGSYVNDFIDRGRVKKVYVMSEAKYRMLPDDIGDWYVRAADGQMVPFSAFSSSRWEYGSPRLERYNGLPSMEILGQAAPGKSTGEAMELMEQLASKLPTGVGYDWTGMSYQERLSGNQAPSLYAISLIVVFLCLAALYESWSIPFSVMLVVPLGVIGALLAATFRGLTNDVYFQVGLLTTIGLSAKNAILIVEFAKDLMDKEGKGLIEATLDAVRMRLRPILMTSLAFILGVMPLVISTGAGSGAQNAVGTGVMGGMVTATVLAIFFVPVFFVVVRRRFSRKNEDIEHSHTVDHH
Target sequence in this assay (P0AE06 25-397, further chain): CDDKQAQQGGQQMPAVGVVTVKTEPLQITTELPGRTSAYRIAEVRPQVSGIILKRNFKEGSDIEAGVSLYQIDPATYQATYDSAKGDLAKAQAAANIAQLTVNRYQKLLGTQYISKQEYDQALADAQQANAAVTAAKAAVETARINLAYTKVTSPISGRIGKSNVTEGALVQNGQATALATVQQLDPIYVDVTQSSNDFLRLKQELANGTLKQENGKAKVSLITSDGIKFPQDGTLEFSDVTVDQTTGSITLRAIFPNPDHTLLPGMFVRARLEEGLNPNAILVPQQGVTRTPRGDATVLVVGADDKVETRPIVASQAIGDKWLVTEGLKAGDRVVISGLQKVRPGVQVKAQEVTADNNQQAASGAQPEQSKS
Target sequence in this assay (P02930 23-493, further chain): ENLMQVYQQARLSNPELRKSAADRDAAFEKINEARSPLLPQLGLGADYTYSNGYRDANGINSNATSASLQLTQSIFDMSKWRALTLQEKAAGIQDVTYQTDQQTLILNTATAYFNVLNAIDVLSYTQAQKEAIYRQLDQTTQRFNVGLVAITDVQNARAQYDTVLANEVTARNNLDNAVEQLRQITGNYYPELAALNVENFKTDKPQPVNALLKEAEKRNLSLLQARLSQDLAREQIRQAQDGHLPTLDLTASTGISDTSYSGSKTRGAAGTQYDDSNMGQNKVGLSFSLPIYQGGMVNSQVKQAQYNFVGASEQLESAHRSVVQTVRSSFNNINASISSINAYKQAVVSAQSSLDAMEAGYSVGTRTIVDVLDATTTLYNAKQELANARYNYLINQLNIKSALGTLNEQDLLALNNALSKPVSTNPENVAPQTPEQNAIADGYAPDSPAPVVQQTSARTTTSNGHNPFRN

AcrAB-TolC efflux pump [3] = biological target: T1, AcrAB-TolC efflux pump; assay: H33342 accumulation assay; type: cell-based, Escherichia coli 287; parameters: endogenous in cells; host or cells: E. coli strains 285 and 287 (ciprofloxacin-resistant mutants of AB1157); conditions: hyper-efflux strain 287
Target sequence in this assay (P02930 23-493): as the sequence (P02930 23-493, further chain) above
Target sequence in this assay (P0AE06 25-397, further chain): as the sequence (P0AE06 25-397, further chain) above
Target sequence in this assay (P31224 whole entry): as the sequence (P31224 whole entry) above

P. aeruginosa ATCC 27853 = assay: MIC assay (microbroth dilution) ± 25 μM EPI; type: cell-based, Pseudomonas aeruginosa
Source text: • Strains and Reagents. The following strains were obtained from the Keio collection (Baba, et al.: Construction of Escherichia coli K-12 in-frame, single-gene knockout mutants: the Keio collection. In Mol Syst Biol, vol. 2, pp. 2006 0008, (2006)): JW0451 (ΔacrB::kan), JW5503 (ΔtolC::kan), JW3234 (ΔacrF::kan), JW2661 (ΔemrB::kan), JW0863 (ΔmacB::kan). The deletion mutations in each of these strains were transferred to AB1157 using P1 phage transduction (see Table 1). The construction of the E. coli cell-based reporter strain (SOS-XXX) that was used for high throughput screening is described in detail in the supplementary information. […] Irgasan was a generous gift from Ciba Speciality Chemicals, Inc. (High Point, N.C.). Hoechst 33342 (H33342) was purchased from Molecular Probes (Eugene, Oreg.). […] Luria Broth (Miller) and agar were purchased as prepared dehydrated media from Becton Dickenson (Franklin Lakes, N.J.). The compound libraries used in high-throughput screens were purchased from Chembridge (San Diego, Calif.), ChemDiv (San Diego, Calif.), and TimTec (Newark, Del.). MBX2319 was synthesized by Microbiotix, Inc. • Antibacterial Activity Assays. The minimal inhibitory concentration (MIC) of antibacterial agents and biocides were determined using the microbroth dilution method essentially as described in the CLSI protocol M7-A7 (CLSI: Method for dilution antimicrobial susceptibility testing for bacteria that grow aerobically; Approved standard-document M7-A7. In Clinical and Laboratory Standards Institute document M7-A7, Clinical and Laboratory Standards Institute, Wayne, Pa., (2006)), with the following exceptions. LB media was used instead of MHB. […] The final concentration of DMSO in each assay was 2%. […] MIC assays were performed in triplicate and the geometric mean was calculated. Checkerboard MIC assays using an EPI and an antibacterial agent were performed essentially as described (Pillai, et al.: Antimicrobial Combinations. In Antibiotics in Laboratory Medicine, ed. by V. Lorian, pp. 365-440, Lippincott Williams & Wilkins, Philadelphia, Pa., (2005)), with the same modifications used for the MIC assays described above. • Time-Kill Assays. Killing curve assays were performed essentially as described (Pillai, et al.: Antimicrobial Combinations. In Antibiotics in Laboratory Medicine, ed. by V. Lorian, pp. 365-440, Lippincott Williams & Wilkins, Philadelphia, Pa., (2005)). Exponential bacterial cultures grown in LB were diluted to a cell density of ˜1×10^7 in LB followed by addition of CIP and/or an EPI. Viability was monitored over 2-4 hours by making serial dilutions in saline and spotting 5 μl of each dilution onto the surface of an LB agar plate in triplicate. Colonies were counted after the plates were incubated at 37° C. for 16-18 hr, colony forming units (CFU) per ml were calculated, and the average and standard deviation for the three replicates was determined. For treatments that decreased CFU/ml below the limit of detection for the spot plating method, the 100 μl samples were diluted into 5 ml LB top agar, were poured onto LB agar plates, and incubated for 18 hr at 37° C. To calculate the fraction of the control for each sample, the average CFU/ml values for treated samples were divided by those from the same sample at 0 h (time=0). Each experiment was repeated at least three times, and a representative experiment is shown. • H33342 Accumulation Assay. The rate of accumulation of the fluorescent dye Hoechst 33342 (H33342), which is a substrate of a wide variety of bacterial efflux pumps (van den Berg van Saparoea, et al., Biochemistry, vol. 44, pp. 16931-16938, (2005)), can be used to estimate the activity of the major efflux pumps in E. coli and many other bacterial species. The H33342 accumulation assay was used to evaluate the effect of EPIs on the activity of the AcrAB-TolC efflux pump in several bacterial species essentially as described (Coldham, et al., J Antimicrob Chemother, vol. 65, pp. 1655-1663, (2010)). […]

Row | SMILES | decrease of MIC50 for LEV [1] | decrease of MIC90 for LEV [1] | effect on MIC50 for PIP [1] | effect on MIC90 for PIP [1] | H33342 accumulation (AcrAB-TolC efflux pump [2]) | H33342 accumulation (AcrAB-TolC efflux pump [3]) | MIC (μg/ml) ± EPI: MBX2319 (P. aeruginosa ATCC 27853; + 25 μM MBX2319) [µg/mL] | MIC (μg/ml) ± EPI: PAβN (P. aeruginosa ATCC 27853; + 25 μM PAβN) [µg/mL] | MIC Ratio MBX2319 (P. aeruginosa ATCC 27853; MIC no cmpd/MIC + 25 μM MBX2319) | MIC Ratio PAβN (P. aeruginosa ATCC 27853; MIC no cmpd/MIC + 25 μM PAβN) | MIC (P. aeruginosa ATCC 27853; Pseudomonas aeruginosa, ATCC27853, no EPI, read-out: MIC (μg/ml) ± EPI: None) [µg/mL]
1 | CC1(C)Cc2c(C#N)c(SCCc3ccccc3)nc(N3CCOCC3)c2CO1 [MBX2319] | four fold | four fold | did not have a significant effect | did not have a significant effect | increased H33342 accumulation | increased H33342 accumulation |  |  |  |  | 
2 | CCN1CCN(C(=O)N[C@@H](C(=O)N[C@@H]2C(=O)N3[C@@H]2SC(C)(C)[C@@H]3C(=O)O)c2ccccc2)C(=O)C1=O [Piperacillin, piperacillin] |  |  |  |  |  |  | 19 | 19 | 0.84 | 0.8 | 16

Reference: US9540389B2, “Antimicrobial potentiators” (priority 2013, dated 2017)
